Common to all, as to assay: Kinase panel
What all share (format): biochemical

The target of assay [1] is T1, Ros(h) (Homo sapiens, UniProt P08922).
T1 construct: purchased Millipore KinaseProfiler

Assay [2] concerns the target T2, cKit(h) (Homo sapiens, UniProt P10721).
T2 construct: purchased Millipore KinaseProfiler

Assay [3] deals with T3, SAPK4(h) (Homo sapiens, UniProt O15264).
T3 construct: purchased Millipore KinaseProfiler
T3 sequence (O15264 1-365): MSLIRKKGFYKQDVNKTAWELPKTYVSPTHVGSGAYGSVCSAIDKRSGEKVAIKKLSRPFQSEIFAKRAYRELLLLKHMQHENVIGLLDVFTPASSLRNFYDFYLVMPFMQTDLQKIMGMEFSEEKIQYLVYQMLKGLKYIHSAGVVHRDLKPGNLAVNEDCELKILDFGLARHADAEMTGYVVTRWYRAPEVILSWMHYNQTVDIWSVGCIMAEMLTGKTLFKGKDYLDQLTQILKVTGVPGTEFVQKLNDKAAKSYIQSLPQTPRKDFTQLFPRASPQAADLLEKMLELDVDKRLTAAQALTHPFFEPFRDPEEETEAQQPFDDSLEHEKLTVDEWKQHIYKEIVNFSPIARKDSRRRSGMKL

The target in assay [4] is T4, FGFR2(N549H)(h) (Homo sapiens, UniProt P21802, N549H).
T4 construct: purchased Millipore KinaseProfiler
T4 sequence (P21802 22-821 N549H): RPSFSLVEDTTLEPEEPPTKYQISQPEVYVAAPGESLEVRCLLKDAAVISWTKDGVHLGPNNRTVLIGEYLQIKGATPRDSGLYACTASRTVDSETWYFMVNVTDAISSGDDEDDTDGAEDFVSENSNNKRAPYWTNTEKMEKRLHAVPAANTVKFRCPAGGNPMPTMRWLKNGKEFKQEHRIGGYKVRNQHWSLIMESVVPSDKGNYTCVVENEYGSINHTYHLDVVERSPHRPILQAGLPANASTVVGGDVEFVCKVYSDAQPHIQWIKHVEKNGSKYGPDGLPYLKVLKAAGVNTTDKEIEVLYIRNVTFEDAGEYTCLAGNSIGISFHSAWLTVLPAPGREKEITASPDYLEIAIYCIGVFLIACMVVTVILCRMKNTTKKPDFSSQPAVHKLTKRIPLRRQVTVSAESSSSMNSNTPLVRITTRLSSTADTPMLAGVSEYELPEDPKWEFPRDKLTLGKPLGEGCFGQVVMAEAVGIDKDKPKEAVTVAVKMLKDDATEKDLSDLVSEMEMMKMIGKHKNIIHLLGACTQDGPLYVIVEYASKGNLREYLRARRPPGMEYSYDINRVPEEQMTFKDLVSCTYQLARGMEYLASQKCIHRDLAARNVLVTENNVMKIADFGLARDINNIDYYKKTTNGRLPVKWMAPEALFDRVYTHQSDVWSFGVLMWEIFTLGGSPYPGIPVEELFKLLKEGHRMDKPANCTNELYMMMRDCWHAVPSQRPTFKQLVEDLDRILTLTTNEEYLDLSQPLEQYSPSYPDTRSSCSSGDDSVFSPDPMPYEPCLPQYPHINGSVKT

The target of assay [5] is T5, ASK1(h) (Homo sapiens, UniProt Q99683).
T5 construct: purchased Millipore KinaseProfiler
T5 sequence (Q99683 1-1374): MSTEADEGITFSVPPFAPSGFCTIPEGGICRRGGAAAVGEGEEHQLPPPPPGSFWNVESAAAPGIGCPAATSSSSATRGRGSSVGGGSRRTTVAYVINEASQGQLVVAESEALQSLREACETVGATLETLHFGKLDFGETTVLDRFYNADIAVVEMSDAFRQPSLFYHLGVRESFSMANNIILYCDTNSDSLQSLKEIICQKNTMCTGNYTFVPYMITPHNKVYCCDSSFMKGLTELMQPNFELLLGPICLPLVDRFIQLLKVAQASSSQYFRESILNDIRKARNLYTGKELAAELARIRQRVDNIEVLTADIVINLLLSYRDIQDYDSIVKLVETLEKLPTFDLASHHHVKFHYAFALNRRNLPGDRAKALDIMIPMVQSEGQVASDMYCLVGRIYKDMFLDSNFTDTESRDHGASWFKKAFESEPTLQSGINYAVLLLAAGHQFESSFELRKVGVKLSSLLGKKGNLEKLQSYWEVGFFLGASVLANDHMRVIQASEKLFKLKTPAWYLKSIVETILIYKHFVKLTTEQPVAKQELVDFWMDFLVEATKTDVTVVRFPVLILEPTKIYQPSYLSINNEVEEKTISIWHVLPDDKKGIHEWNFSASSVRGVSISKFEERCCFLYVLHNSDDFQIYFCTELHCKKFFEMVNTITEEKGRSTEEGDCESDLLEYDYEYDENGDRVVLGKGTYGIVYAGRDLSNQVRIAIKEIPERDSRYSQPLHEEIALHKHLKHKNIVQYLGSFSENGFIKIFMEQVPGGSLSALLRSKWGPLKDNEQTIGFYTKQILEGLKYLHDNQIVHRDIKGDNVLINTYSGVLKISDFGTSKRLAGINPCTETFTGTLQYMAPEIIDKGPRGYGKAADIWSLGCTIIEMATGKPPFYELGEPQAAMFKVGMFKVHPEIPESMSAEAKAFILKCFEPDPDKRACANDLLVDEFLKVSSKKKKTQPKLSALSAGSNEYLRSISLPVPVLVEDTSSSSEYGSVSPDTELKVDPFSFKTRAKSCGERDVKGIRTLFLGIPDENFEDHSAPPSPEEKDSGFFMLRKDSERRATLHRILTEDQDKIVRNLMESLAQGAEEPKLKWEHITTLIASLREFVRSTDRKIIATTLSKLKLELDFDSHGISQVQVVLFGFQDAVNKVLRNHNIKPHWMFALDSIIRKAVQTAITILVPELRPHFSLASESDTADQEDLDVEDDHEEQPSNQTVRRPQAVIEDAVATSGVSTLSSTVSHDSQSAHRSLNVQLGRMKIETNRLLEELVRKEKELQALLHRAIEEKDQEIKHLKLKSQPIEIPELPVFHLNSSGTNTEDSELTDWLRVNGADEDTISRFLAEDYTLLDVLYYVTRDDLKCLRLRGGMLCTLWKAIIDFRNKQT

Assay [6] concerns the target T6, Src(1-530)(h) (Homo sapiens, UniProt P12931).
T6 construct: purchased Millipore KinaseProfiler

Assay [7] deals with T7, PKA(h) (Homo sapiens, UniProt P17612).
T7 construct: purchased Millipore KinaseProfiler

Read-outs that look alike come from different tables or passages of the source.

T1 sequence (P08922 28-2347): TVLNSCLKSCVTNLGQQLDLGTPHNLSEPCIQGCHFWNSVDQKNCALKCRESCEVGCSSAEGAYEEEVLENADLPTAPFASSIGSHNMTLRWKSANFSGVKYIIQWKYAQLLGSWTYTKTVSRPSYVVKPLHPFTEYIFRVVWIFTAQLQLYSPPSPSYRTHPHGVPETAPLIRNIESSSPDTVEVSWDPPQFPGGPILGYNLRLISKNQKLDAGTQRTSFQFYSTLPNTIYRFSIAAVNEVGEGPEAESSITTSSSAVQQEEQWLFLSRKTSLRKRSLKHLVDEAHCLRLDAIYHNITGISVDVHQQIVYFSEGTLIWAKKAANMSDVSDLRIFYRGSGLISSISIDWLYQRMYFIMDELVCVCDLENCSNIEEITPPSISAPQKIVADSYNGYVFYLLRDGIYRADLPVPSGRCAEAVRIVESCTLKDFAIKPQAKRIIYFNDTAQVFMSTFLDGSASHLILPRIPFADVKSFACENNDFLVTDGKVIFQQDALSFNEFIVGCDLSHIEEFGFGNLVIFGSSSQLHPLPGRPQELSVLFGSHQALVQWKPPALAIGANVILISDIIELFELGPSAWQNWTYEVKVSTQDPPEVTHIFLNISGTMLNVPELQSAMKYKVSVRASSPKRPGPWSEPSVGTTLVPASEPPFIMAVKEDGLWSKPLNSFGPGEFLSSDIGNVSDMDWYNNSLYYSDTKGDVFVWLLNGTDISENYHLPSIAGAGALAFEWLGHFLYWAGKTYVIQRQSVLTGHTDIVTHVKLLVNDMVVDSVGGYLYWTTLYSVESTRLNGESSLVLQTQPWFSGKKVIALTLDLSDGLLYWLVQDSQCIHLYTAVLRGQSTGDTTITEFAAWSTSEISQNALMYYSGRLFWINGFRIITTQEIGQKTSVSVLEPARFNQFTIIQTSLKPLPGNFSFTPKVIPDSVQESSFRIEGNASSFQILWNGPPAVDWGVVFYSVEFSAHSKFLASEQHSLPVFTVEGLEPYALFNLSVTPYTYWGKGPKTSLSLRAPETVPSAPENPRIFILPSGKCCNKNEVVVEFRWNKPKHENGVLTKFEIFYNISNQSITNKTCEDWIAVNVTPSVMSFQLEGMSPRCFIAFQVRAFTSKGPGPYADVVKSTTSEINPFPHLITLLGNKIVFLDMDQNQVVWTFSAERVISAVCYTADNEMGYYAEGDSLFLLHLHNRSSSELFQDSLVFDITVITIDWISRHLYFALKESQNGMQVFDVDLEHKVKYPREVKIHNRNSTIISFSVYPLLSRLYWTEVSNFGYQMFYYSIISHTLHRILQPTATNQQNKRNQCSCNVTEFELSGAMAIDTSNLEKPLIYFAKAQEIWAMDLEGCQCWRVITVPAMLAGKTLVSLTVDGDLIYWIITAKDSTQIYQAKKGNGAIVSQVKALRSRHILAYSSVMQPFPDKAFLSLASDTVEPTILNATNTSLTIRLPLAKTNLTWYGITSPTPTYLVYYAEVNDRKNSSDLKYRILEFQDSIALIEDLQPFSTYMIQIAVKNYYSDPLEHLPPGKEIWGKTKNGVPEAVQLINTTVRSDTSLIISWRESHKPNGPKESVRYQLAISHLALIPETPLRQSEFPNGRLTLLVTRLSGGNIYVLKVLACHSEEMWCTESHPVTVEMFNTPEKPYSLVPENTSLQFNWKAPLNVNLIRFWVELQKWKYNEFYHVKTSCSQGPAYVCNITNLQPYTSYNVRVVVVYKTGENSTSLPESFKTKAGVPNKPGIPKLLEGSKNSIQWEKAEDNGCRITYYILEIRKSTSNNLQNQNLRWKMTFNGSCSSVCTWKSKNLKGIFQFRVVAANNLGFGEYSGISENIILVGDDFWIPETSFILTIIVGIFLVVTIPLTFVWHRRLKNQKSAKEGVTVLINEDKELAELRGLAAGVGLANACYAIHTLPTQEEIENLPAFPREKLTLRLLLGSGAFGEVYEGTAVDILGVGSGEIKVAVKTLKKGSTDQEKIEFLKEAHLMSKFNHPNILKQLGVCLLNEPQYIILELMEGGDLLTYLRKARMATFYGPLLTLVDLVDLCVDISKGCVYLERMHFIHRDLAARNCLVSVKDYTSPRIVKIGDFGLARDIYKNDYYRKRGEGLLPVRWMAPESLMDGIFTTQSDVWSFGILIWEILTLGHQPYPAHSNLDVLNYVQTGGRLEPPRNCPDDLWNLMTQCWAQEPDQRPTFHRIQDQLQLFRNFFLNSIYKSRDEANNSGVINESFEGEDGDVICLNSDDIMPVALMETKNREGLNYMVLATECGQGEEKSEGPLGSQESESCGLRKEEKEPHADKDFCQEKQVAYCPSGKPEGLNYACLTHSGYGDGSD
T2 sequence (P10721 26-976): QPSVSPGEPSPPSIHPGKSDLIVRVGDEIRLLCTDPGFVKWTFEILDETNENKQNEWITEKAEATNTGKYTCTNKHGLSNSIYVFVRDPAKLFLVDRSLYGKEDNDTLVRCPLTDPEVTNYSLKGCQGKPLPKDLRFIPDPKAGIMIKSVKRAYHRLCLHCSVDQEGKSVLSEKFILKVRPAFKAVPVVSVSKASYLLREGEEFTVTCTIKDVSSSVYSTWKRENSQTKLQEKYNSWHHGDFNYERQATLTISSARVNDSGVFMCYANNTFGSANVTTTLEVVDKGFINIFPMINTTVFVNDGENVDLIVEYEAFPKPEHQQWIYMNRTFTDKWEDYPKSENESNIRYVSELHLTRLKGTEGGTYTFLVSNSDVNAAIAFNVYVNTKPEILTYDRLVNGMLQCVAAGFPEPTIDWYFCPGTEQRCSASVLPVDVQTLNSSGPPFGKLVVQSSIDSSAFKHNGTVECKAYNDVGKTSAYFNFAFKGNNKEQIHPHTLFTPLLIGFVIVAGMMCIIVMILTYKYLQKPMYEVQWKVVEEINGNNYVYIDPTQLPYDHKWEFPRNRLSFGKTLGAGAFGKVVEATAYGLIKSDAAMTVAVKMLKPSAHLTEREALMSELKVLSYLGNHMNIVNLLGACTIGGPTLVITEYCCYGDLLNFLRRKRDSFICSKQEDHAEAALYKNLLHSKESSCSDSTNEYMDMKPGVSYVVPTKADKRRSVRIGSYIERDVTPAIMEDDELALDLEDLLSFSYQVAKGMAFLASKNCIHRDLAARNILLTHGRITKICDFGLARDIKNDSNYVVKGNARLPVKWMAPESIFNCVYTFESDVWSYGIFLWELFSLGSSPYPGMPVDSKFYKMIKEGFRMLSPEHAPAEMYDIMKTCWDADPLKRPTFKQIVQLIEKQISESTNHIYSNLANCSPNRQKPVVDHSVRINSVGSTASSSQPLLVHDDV
T6 sequence (P12931 1-530 limits assumed): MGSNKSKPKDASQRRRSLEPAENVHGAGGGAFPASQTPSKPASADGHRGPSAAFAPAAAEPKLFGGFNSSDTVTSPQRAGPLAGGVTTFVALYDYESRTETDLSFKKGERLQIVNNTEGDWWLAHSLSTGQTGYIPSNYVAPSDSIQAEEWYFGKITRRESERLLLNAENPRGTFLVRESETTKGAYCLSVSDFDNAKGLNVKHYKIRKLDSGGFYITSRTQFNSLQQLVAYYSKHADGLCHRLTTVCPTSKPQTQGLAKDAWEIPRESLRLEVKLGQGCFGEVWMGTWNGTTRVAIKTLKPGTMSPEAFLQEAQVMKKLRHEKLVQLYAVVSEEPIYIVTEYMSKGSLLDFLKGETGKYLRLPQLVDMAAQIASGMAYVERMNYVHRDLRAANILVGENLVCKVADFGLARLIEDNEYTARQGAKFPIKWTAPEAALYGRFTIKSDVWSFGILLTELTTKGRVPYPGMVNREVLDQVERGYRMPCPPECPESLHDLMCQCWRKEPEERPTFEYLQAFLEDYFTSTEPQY

Consider `Cn1ncc(Cl)c1-c1cc(C(=O)N[C@H](CN)Cc2cccc(F)c2)sc1Cl` [GSK2110183], for which the inhibition (commonly the change of the read-out against control, counted positive when it falls) at 0.5 µM is -10% in assay [1]; 13% in assay [2]; 3% in assay [3]; -1% in assay [4]; -2% in assay [5]; -12% in assay [6]. In assay [7], the inhibition at 0.5 µM came out at 94%. For the same compound, the inhibition at 10 µM was -10% in assay [1]; 8% in assay [2]; 64% in assay [3]; -1% in assay [4]; 3% in assay [5]; 61% in assay [6]. The inhibition at 10 µM in assay [7] was 96%.
Regarding `Cn1ncc(Cl)c1-c1cc(C(=O)N[C@H](CN)Cc2ccc(F)c(F)c2)oc1Cl` [GSK2141795], the inhibition at 0.5 µM in assay [1] (0.5 µM, read-out: % Inhibition) was 0%; in assay [2] (0.5 µM, read-out: % Inhibition) it was 0%; in assay [3] (0.5 µM, read-out: % Inhibition), -9%; in assay [4] (0.5 µM, read-out: % Inhibition), -2%; in assay [5] (0.5 µM, read-out: % Inhibition) it was -21%; in assay [6] (0.5 µM, read-out: % Inhibition), -30%. Moreover, the inhibition at 0.5 µM in assay [7] (0.5 µM, read-out: % Inhibition) was 99%. The inhibition at 10 µM was 5% in assay [1] (10 µM, read-out: % Inhibition); -1% in assay [2] (10 µM, read-out: % Inhibition); 54% in assay [3] (10 µM, read-out: % Inhibition); -5% in assay [4] (10 µM, read-out: % Inhibition); -14% in assay [5] (10 µM, read-out: % Inhibition); 30% in assay [6] (10 µM, read-out: % Inhibition). Further, the inhibition at 10 µM in assay [7] (10 µM, read-out: % Inhibition) turned out to be 97%.
